Data: patent US7473688B2, “Indolobenzazepine HCV NS5B inhibitors” (Bristol-Myers Squibb Company, priority 2005, dated 2009)

Biological target: T1, HCV NS5B (Hepatitis C virus genotype 1b, UniProt Q9WMX2)
T1 construct: The protein was expressed with an 18 amino acid C-terminal truncation to enhance the solubility; made in house; host or cells: E. coli BL21 (DE3), pET21a
Test: HCV NS5B RdRp enzyme assay (preincubation protocol)
Type: biochemical
Details: Table 1, read-out: IC50*
Description: HCV NS5B RdRp cloning, expression, and purification. The cDNA encoding the NS5B protein of HCV, genotype 1b, was cloned into the pET21a expression vector. The protein was expressed with an 18 amino acid C-terminal truncation to enhance the solubility. The E. coli competent cell line BL21 (DE3) was used for expression of the protein. Cultures were grown at 37° C. for ˜4 hours until the cultures reached an optical density of 2.0 at 600 nm. The cultures were cooled to 20° C. and induced with 1 mM IPTG. Fresh ampicillin was added to a final concentration of 50 μg/ml and the cells were grown overnight at 20° C.
Cell pellets (3L) were lysed for purification to yield 15-24 mgs of purified NS5B. The lysis buffer consisted of 20 mM Tris-HCl, pH 7.4, 500 mM NaCl, 0.5% triton X-100, 1 mM DTT, 1 mM EDTA, 20% glycerol, 0.5 mg/ml lysozyme, 10 mM MgCl2, 15 ug/ml deoxyribonuclease I, and Complete TM protease inhibitor tablets (Roche). After addition of the lysis buffer, frozen cell pellets were resuspended using a tissue homogenizer. To reduce the viscosity of the sample, aliquots of the lysate were sonicated on ice using a microtip attached to a Branson sonicator. The sonicated lysate was centrifuged at 100,000×g for 1 hr at 4° C. and filtered through a 0.2 μm filter unit (Corning).
The protein was purified using three sequential chromatography steps: Heparin sepharose CL-6B, polyU sepharose 4B, and Hitrap SP sepharose (Pharmacia). The chromatography buffers were identical to the lysis buffer but contained no lysozyme, deoxyribonuclease I, MgCl2 or protease inhibitor and the NaCl concentration of the buffer was adjusted according to the requirements for charging the protein onto the column. Each column was eluted with a NaCl gradient which varied in length from 5-50 column volumes depending on the column type. After the final chromatography step, the resulting purity of the enzyme is >90% based on SDS-PAGE analysis. The enzyme was aliquoted and stored at −80° C.
Standard HCV NS5B RdRp enzyme assay. HCV RdRp genotype 1b assays were run in a final volume of 60 μl in 96 well plates (Costar 3912). The assay buffer is composed of 20 mM Hepes, pH 7.5, 2.5 mM KCl, 2.5 mM MgCl2, 1 mM DTT, 1.6 U RNAse inhibitor (Promega N2515), 0.1 mg/ml BSA (Promega R3961), and 2% glycerol. All compounds were serially diluted (3-fold) in DMSO and diluted further in water such that the final concentration of DMSO in the assay was 2%. HCV RdRp genotype 1b enzyme was used at a final concentration of 28 nM. A polyA template was used at 6 nM, and a biotinylated oligo-dT12 primer was used at 180 nM final concentration. Template was obtained commercially (Amersham 27-4110). Biotinylated primer was prepared by Sigma Genosys. 3H-UTP was used at 0.6 μCi (0.29 μM total UTP). Reactions were initiated by the addition of enzyme, incubated at 30° C. for 60 min, and stopped by adding […] of 50 mM EDTA containing SPA beads (4 μg/μl, Amersham RPNQ 0007). Plates were read on a Packard Top Count NXT after >1 hr incubation at room temperature.
Modified HCV NS5B RdRp enzyme assay. A modified enzyme assay was performed essentially as described for the standard enzyme assay except for the following: The biotinylated oligo dT12 primer was precaptured on streptavidin-coated SPA beads by mixing primer and beads in assay buffer and incubating at room temperature for one hour. Unbound primer was removed after centrifugation. The primer-bound beads were resuspended in 20 mM Hepes buffer, pH 7.5 and used in the assay at final concentrations of […] primer and 0.67 μg/μl beads. Order of addition in the assay: Enzyme (14 nM) was added to diluted compound followed by the addition of a mixture of template (0.2 nM), 3H-UTP (0.6 μCi, 0.29 μM), and primer-bound beads, to initiate the reaction; concentrations given are final. Reactions were allowed to proceed for 4 hours at 30° C.
IC50 values for compounds were determined using seven different [I]. […]

T1 sequence (Q9WMX2 2420-2992): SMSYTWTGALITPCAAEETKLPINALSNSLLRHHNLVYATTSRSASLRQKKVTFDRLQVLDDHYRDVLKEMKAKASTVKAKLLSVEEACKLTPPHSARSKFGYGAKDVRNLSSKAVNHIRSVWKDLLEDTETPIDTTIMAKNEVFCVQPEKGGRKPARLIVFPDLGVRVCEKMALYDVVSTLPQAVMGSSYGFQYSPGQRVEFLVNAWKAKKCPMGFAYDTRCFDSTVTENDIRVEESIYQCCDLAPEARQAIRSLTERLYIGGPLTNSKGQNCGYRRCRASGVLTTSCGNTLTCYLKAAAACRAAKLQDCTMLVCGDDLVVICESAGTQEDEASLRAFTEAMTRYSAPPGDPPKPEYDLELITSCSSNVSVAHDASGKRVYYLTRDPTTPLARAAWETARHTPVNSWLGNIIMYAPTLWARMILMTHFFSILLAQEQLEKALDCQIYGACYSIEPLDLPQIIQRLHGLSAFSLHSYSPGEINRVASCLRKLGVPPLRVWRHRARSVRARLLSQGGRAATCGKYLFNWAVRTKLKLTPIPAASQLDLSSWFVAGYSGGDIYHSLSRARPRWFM

Row | Compound | IC50
1 | CN(C)S(=O)(=O)NC(=O)c1ccc2c(C3CCCCC3)c3n(c2c1)CC(C(=O)N1CCC(F)CC1)=Cc1ccccc1-3 [drawing 74] | 10 to 1000 nM
2 | CON(C)S(=O)(=O)NC(=O)c1ccc2c(C3CCCCC3)c3n(c2c1)CC(C(=O)N1CCOCC1)=Cc1ccccc1-3 [drawing 90] | 10 to 1000 nM
3 | CN(C)S(=O)(=O)NC(=O)c1ccc2c(C3CCCCC3)c3n(c2c1)CC(C(=O)N1CCC(N2CCOCC2)CC1)=Cc1cc(OCc2ccccc2)ccc1-3 [drawing 139] | 10 to 1000 nM

Same assay, conditions: Table 1a, read-out: IC50*

Row | Compound | IC50
4 | O=C(O)c1ccc2c(C3CCCCC3)c3n(c2c1)CC(NC(=O)C1CCOCC1)Cc1ccccc1-3 (stereo not shown) | 10 to 1000 nM
5 | O=C(NCc1nc2ccccc2[nH]1)c1ccc2c(C3CCCCC3)c3n(c2c1)CC(C(=O)N1CCC(N2CCOCC2)CC1)=Cc1ccccc1-3 | 10 to 1000 nM
6 | COC(=O)[C@@H]1C[C@@H](O)CN1C(=O)C1=Cc2cc(OC)ccc2-c2c(C3CCCCC3)c3ccc(C(=O)NS(=O)(=O)N(C)C)cc3n2C1 | 10 to 1000 nM
7 | COc1ccc2c(c1)C=C(C(=O)N1CCN(C(C)=O)CC1)Cn1c-2c(C2CCCCC2)c2ccc(C(=O)NS(=O)(=O)N(C)C)cc21 | 10 to 1000 nM
8 | COc1ccc2c(c1)C=C(C(=O)N1C[C@H](O)C[C@H]1C(=O)Nc1ccc3c(C)cc(=O)oc3c1)Cn1c-2c(C2CCCCC2)c2ccc(C(=O)NS(=O)(=O)N(C)C)cc21 | 10 to 1000 nM
9 | COc1ccc2c(c1)C=C(C(=O)N1CCN(C(=O)c3ccco3)CC1)Cn1c-2c(C2CCCCC2)c2ccc(C(=O)NS(=O)(=O)N(C)C)cc21 | 10 to 1000 nM
10 | COc1ccc2c(c1)C=C(C(=O)N1CCN(c3ccccc3OC)CC1)Cn1c-2c(C2CCCCC2)c2ccc(C(=O)NS(=O)(=O)N(C)C)cc21 | 10 to 1000 nM
11 | COc1ccc2c(c1)C=C(C(=O)N1CCN(C(=O)N(C)C)CC1)Cn1c-2c(C2CCCCC2)c2ccc(C(=O)NS(=O)(=O)N(C)C)cc21 | 10 to 1000 nM
12 | COc1ccc2c(c1)C=C(C(=O)N1CCN(C(=O)N3CCCC3)CC1)Cn1c-2c(C2CCCCC2)c2ccc(C(=O)NS(=O)(=O)N(C)C)cc21 | 10 to 1000 nM
13 | COc1ccc2c(c1)C=C(C(=O)N1CCN(C(=O)N3CCCCC3)CC1)Cn1c-2c(C2CCCCC2)c2ccc(C(=O)NS(=O)(=O)N(C)C)cc21 | 10 to 1000 nM
14 | COc1ccc2c(c1)C=C(C(=O)N1CCC(O)(c3cccnc3)CC1)Cn1c-2c(C2CCCCC2)c2ccc(C(=O)NS(=O)(=O)N(C)C)cc21 | 10 to 1000 nM
15 | COc1ccc2c(c1)C=C(C(=O)N1CCC3(CC1)OC(=O)c1ccccc13)Cn1c-2c(C2CCCCC2)c2ccc(C(=O)NS(=O)(=O)N(C)C)cc21 | 10 to 1000 nM
16 | COC(=O)CNC(=O)CNC(=O)C1=Cc2cc(OC)ccc2-c2c(C3CCCCC3)c3ccc(C(=O)NS(=O)(=O)N(C)C)cc3n2C1 | 10 to 1000 nM
17 | COc1ccc2c(c1)C=C(C(=O)N1CCN(C(=O)CO)CC1)Cn1c-2c(C2CCCCC2)c2ccc(C(=O)NS(=O)(=O)N(C)C)cc21 | 10 to 1000 nM
18 | CN(C)S(=O)(=O)NC(=O)c1ccc2c(C3CCCCC3)c3n(c2c1)CC(NC(=O)C1CCOCC1)Cc1ccccc1-3 (stereo not shown) | 10 to 1000 nM
19 | CN(C)S(=O)(=O)NC(=O)c1ccc2c(C3CCCCC3)c3n(c2c1)C[C@@H](NC(=O)N1CCOCC1)Cc1ccccc1-3 | 10 to 1000 nM
20 | CN(C)S(=O)(=O)NC(=O)c1ccc2c(C3CCCCC3)c3n(c2c1)C[C@H](NC(=O)N1CCOCC1)Cc1ccccc1-3 | 10 to 1000 nM
21 | COc1ccc2c(c1)C=C(C(=O)NCCNC(C)=O)Cn1c-2c(C2CCCCC2)c2ccc(C(=O)NS(=O)(=O)N(C)C)cc21 | 10 to 1000 nM

Row | Compound | IC50
22 | COc1ccc2c(c1)C=C(C(=O)N1CCC[C@H]1C(=O)N(C)C)Cn1c-2c(C2CCCCC2)c2ccc(C(=O)NS(=O)(=O)N(C)C)cc21 | 10 to 1000 nM
23 | COc1ccc2c(c1)C=C(C(=O)N1CCC(Oc3ncccn3)CC1)Cn1c-2c(C2CCCCC2)c2ccc(C(=O)NS(=O)(=O)N(C)C)cc21 | 10 to 1000 nM
24 | COc1ccc2c(c1)C=C(C(=O)N1CCN(c3nccs3)CC1)Cn1c-2c(C2CCCCC2)c2ccc(C(=O)NS(=O)(=O)N(C)C)cc21 | 10 to 1000 nM
25 | COc1ccc2c(c1)C=C(C(=O)N1CCOC(c3ccccc3)C1)Cn1c-2c(C2CCCCC2)c2ccc(C(=O)NS(=O)(=O)N(C)C)cc21 (stereo not shown) | 10 to 1000 nM
26 | COc1ccc2c(c1)C=C(C(=O)N1CCn3cnnc3C1)Cn1c-2c(C2CCCCC2)c2ccc(C(=O)NS(=O)(=O)N(C)C)cc21 | 10 to 1000 nM
27 | COc1ccc2c(c1)C=C(C(=O)N1CCN(c3ncncn3)CC1)Cn1c-2c(C2CCCCC2)c2ccc(C(=O)NS(=O)(=O)N(C)C)cc21 | 10 to 1000 nM
28 | COc1ccc2c(c1)C=C(C(=O)NCCN1C[C@@H](C)O[C@@H](C)C1)Cn1c-2c(C2CCCCC2)c2ccc(C(=O)NS(=O)(=O)N(C)C)cc21 | 10 to 1000 nM
29 | COc1ccc2c(c1)C=C(C(=O)N(C)C1CCS(=O)(=O)C1)Cn1c-2c(C2CCCCC2)c2ccc(C(=O)NS(=O)(=O)N(C)C)cc21 (stereo not shown) | 10 to 1000 nM
30 | COc1ccc2c(c1)C=C(C(=O)N1CCS(=O)(=O)CC1)Cn1c-2c(C2CCCCC2)c2ccc(C(=O)NS(=O)(=O)N(C)C)cc21 | 10 to 1000 nM
31 | O=C(NCc1nnn[nH]1)c1ccc2c(C3CCCCC3)c3n(c2c1)CC(C(=O)N1CCC(N2CCOCC2)CC1)=Cc1ccccc1-3 | 10 to 1000 nM
32 | O=C(NCc1ccccn1)c1ccc2c(C3CCCCC3)c3n(c2c1)CC(C(=O)N1CCC(N2CCOCC2)CC1)=Cc1ccccc1-3 | 10 to 1000 nM
33 | O=C(NCc1cn2ccccc2n1)c1ccc2c(C3CCCCC3)c3n(c2c1)CC(C(=O)N1CCC(N2CCOCC2)CC1)=Cc1ccccc1-3 | 10 to 1000 nM
34 | Cc1cnc(CNC(=O)c2ccc3c(C4CCCCC4)c4n(c3c2)CC(C(=O)N2CCC(N3CCOCC3)CC2)=Cc2ccccc2-4)cn1 | 10 to 1000 nM
35 | C[C@@H]1CN(C(=O)C2=Cc3c(ccc4c3OCO4)-c3c(C4CCCCC4)c4ccc(C(=O)O)cc4n3C2)C[C@H](C)O1 | 10 to 1000 nM
36 | COc1ccc2c(c1)C=C(C(=O)N1CCOC(CN3CCCC3)C1)Cn1c-2c(C2CCCCC2)c2ccc(C(=O)NS(=O)(=O)N(C)C)cc21 (stereo not shown) | 10 to 1000 nM
37 | O=C(NCc1ccco1)c1ccc2c(C3CCCCC3)c3n(c2c1)CC(C(=O)N1CCC(N2CCOCC2)CC1)=Cc1ccccc1-3 | 10 to 1000 nM
38 | O=C(NC[C@H]1CCCO1)c1ccc2c(C3CCCCC3)c3n(c2c1)CC(C(=O)N1CCC(N2CCOCC2)CC1)=Cc1ccccc1-3 | 10 to 1000 nM

Same assay, conditions: Table 1b, read-out: IC50*

Row | Compound | IC50
39 | COC(=O)c1ccc2c(C3CCCCC3)c3n(c2c1)CC(C(=O)NCC=O)=Cc1cc(OC)ccc1-3 | 20 to 1000 nM
40 | COc1ccc2c(c1)C=C(C(=O)N1C[C@H](CO)[C@@H](O)[C@H](O)C1)Cn1c-2c(C2CCCCC2)c2ccc(C(=O)NS(=O)(=O)N(C)C)cc21 | < 20 nM
41 | COc1ccc2c(c1)C=C(C(=O)N(C)[C@H](C)C(=O)N(C)C)Cn1c-2c(C2CCCCC2)c2ccc(C(=O)NS(=O)(=O)N(C)C)cc21 | < 20 nM
42 | COc1ccc2c(c1)C=C(C(=O)N(C)[C@H](C)C(=O)N1CCOCC1)Cn1c-2c(C2CCCCC2)c2ccc(C(=O)NS(=O)(=O)N(C)C)cc21 | < 20 nM
43 | O=C(O)c1ccc2c(C3CCCCC3)c3n(c2c1)CC(C(=O)N1CCOC(CO)C1)=Cc1cc(F)ccc1-3 (stereo not shown) | 20 to 1000 nM
44 | COC(=O)c1ccc2c(C3CCCCC3)c3n(c2c1)CC(C(=O)N1CCOC(CO)C1)=Cc1cc(F)ccc1-3 (stereo not shown) | 20 to 1000 nM
45 | COC(=O)c1ccc2c(C3CCCCC3)c3n(c2c1)CC(C(=O)N[C@@H]1C2CCC(C)([C@@H]1O)C2(C)C)=Cc1cc(OC)ccc1-3 (stereo partly shown) | > 12500 nM
46 | COc1ccc2c(c1)C=C(C(=O)N1C[C@@H](C)N(C(C)C)[C@@H](C)C1)Cn1c-2c(C2CCCCC2)c2ccc(C(=O)NS(=O)(=O)N(C)C)cc21 | 20 to 1000 nM
